According to patent US6432963B1, “Pyrimidine-5-carboxamide derivatives” (Yamanouchi Pharmaceutical Co., Ltd., priority 1997, dated 2002):
Counter-ions that a name gives are not always drawn.

Each molecule was assayed against T1, Syk tyrosine kinase (Homo sapiens, UniProt P43405) (assay: Syk tyrosine kinase inhibition test (SPA system)). Details: His-tag fused human Syk, Band 3 peptide, [γ-33P]ATP, room temperature 1 hour; read-out: inhibition activity as IC50 value upon Syk tyrosine kinase.
T1 construct: FLAG tag (8 amino acid residues) (C); made in house; host or cells: Sf-9 insect cells (baculovirus, pFASTBAC HT)
Format: biochemical

| IC50 [µM] | Structure (SMILES) |
| --- | --- |
| ≤ 0.1 | NCCNc1ncc(C(N)=O)c(Nc2ccc3ccccc3c2)n1 [2-(2-aminoethylamino)-4-(2-naphthylamino)pyrimidine-5-carboxamide] |
| ≤ 0.1 | NCCNc1ncc(C(N)=O)c(Nc2cccc(C(F)(F)F)c2)n1 [2-(2-aminoethylamino)-4-(3-trifluoromethylanilino)pyrimidine-5-carboxamide] |
| ≤ 0.1 | NCCNc1ncc(C(N)=O)c(Nc2cccc([N+](=O)[O-])c2)n1 [2-(2-aminoethylamino)-4-(3-nitroanilino)pyrimidine-5-carboxamide] |
| ≤ 0.1 | NC(=O)c1cnc(NC2CCCCC2N)nc1Nc1cc(Cl)cc(Cl)c1 (stereo not drawn) [2-(cis-2-aminohexylamino)-4-(3,5-dichloroanilino)pyrimidine-5-carboxamide dihydrochloride] |
